From paper PMC10593742, “Binding mechanism and biological effects of flavone DYRK1A inhibitors for the design of new antidiabetics” (Scientific Reports, 2023)
Read-outs that look alike come from different tables or passages of the source.

Legend:
[1] = test system: INS-1E cells; assay: Insulin expression level by flow cytometry, INS-1E; type: cell-based, rat; settings: for effect on insulin level over 12 days: compound alone, 24 h incubation; for insulin level: harmine 1 μM
[2] = test system: MIN6 cells; assay: Insulin expression level by flow cytometry, MIN6; type: cell-based, mouse; settings: for effect on insulin level over 12 days: MIN6, compound alone, 24 h incubation
[3] = test system: hiPSC-derived beta cells organoids; assay: Glucose-stimulated insulin secretion by ELISA, hiPSC-derived pancreatic islet organoids; type: cell-based, human; settings: 24 h incubation; for insulin secretion by organoids (GSIS, ELISA): compound alone
Description: Differentiation of hiPSC into iPSC-derived β-cell islets was carried out following the protocol established by Pellegrini et al.[50]. A day before differentiation, 1 × 10^4 cells were seeded on coated with Geltrex (Gibco) 12 wells plate in Essential 8 medium (Gibco) with Y-27632 10 µM (Abcam). The appropriate culture media and required components based on the protocol of Pellegrini with modifications, as published in Barzowska et al.[37].
Cells and organoids were homogenized in lysis buffer.
Figure 9 Quercetin and TGFβ inhibitor—LY364947 collectively support insulin release from hiPSC-derived pancreatic islet organoids. (A) The analysis of insulin secretion by ELISA assay. […] The organoids were immunostained for insulin (green) and cytoskeleton (red). The nuclei were stained with Hoechst 33258 (blue). Scale bars, 20 μm.

[4] = test system: MIN6 cells; assay: MIN6 cell proliferation by Ki-67 staining and flow cytometry; type: cell-based, mouse; settings: for Ki-67-positive cells, combination with GLP-1 / Ki-67-positive cells, combination with LY364947: MIN6; for Ki-67-positive cells, combination with GLP-1: GLP-1 5 nM
[5] = molecular target: T1, DYRK1A (Homo sapiens, UniProt Q13627); assay: Cook activity assay (DYRK1A-catalyzed phosphorylation of DYRKtide, ADP production linked to PK/LDH NADH oxidation); type: biochemical; settings: for IC50: read-out: IC50 (DYRK1A inhibition)
T1 construct: In the assay, the truncated DYRK1A protein restricted to the kinase domain (126–490) was used; made in house; host or cells: E. coli LOBSTR strain

[6] = test system: DYRK1A-dependent CyclinD1 phosphorylation; assay: CyclinD1 phosphorylation profile in transfected HEK293T cells (Western blot); type: cell-based; settings: 10 μM, 6 h; HEK293T co-transfected with HA-CyclinD1 and Flag-DYRK1A
[7] = test system: MIN6 cells; assay: Glucose-stimulated insulin secretion (GSIS) quantified by ELISA, MIN6; settings: GLP-1 5 nM
[8] = test system: INS-1E cells; assay: MTT cytotoxicity and cell survival assay, INS-1E; settings: for concentration range with increased cell viability (MTT): 24 h; for cytotoxic effect, combination with LY364947 or GLP-1: LY364947 […] or GLP-1 5 nM, gossypin […], rutin 1 μM
[9] = LogP determination by the shake-flask method; type: physicochemical; settings: n-octanol/PBS
[10] = test system: DYRK1A-related NFAT signaling; assay: NFAT activity luciferase assay in HEK293T NFAT cells; type: cell-based; settings: for increase in Renilla luciferase activity (NFAT reporter): 10 μM, 3 h pre-treatment, then PMA/IM 5 h, relative to DMSO
[11] = test system: MIN6 cells; assay: MTT cytotoxicity and cell survival assay, MIN6; settings: MIN6, 24 h
[12] = test system: DYRK1A-controlled calcineurin/NFAT pathway; assay: NFAT translocation assay (NFAT-GFP, mCherry-DYRK1A) in HEK293T cells; type: cell-based; settings: 10 μM, 3 h, then IM 5 μM 1 h
[13] = 5 μM, 10 μM and 20 μM of compound, DMSO = 100%
[14] = kinase domain (126–490), compound 20 nM–200 μM, ATP (128 µM)

Compound | increase in proliferation rate (Ki-67-positive cells) vs control ([4]; MIN6, compound alone) | effect on residual DYRK1A activity [5, 13] | CyclinD1 phosphorylation (p-CyclinD1 at Thr289) [6] | concentration range with increased cell viability (MTT) [8] | IC50 [5, 14] [µM] | increase in Renilla luciferase activity (NFAT reporter) [10] | concentration range with increased cell viability (MTT) [11] | other results
c1ccc(-c2[nH]ncc2-c2ccnc3ccccc23)nc1 [LY364947] | up to 5% |  |  |  |  |  |  | effect on insulin level over 12 days [1]: less prominent but constant effect over the 12 days; effect on insulin level over 12 days [2]: less prominent but constant effect over the 12 days; insulin secretion by organoids (GSIS, ELISA) [3]: less pronounced effect
O=c1cc(-c2ccc(O)cc2)oc2cc(O[C@@H]3O[C@H](CO)[C@@H](O)[C@H](O)[C@H]3O)cc(O)c12 [apigetrin, 5-hydroxy-2-(4-hydroxyphenyl)-7[(2S,3R,4S,5S,6R)3,4,5-trihydroxy-6-(hydroxymethyl)oxan-2-yl]oxychromen-4-one] |  | no influence on DYRK1A activity |  |  |  |  |  | 
O=c1cc(-c2ccccc2)oc2cc(O)c(O)c(O)c12 [baicalein, 5,6,7-trihydroxy-2-phenylchromen-4-one] | 5% | decreased DYRK1A activity dose-dependently | significantly reduced CyclinD1 phosphorylation | 0.1 to 2.5 µM | 3.6 | threefold | 0.1 to 2.5 µM | insulin secretion (GSIS, ELISA), combination with GLP-1 [7]: improve insulin secretion; Ki-67-positive cells, combination with GLP-1 ([4]; control cells 32%): 55%; Ki-67-positive cells, combination with LY364947 ([4]; control cells 32%): 48%; logP at 15 min [9]: 2.55
COc1cc(-c2cc(=O)c3c(O)c(OC)c(OC)c(OC)c3o2)cc(OC)c1OC [gardenin A, 5-hydroxy-6,7,8-trimethoxy-2-(3,4,5-trimethoxyphenyl)chromen-4-one] |  | no influence on DYRK1A activity |  |  |  |  |  | 
O=c1c(O)c(-c2ccc(O)c(O)c2)oc2c(O[C@@H]3O[C@H](CO)[C@@H](O)[C@H](O)[C@H]3O)c(O)cc(O)c12 [gossypin, 2-(3,4-dihydroxyphenyl)-3,5,7-trihydroxy-8-[(2S,3R,4S,5S,6R)-3,4,5-trihydroxy-6-(hydroxymethyl)oxan-2-yl]oxychromen-4-one] |  | decreased DYRK1A activity dose-dependently | significantly reduced CyclinD1 phosphorylation | did not influence cell viability | 1.4 | twofold | did not influence cell viability | cytotoxic effect, combination with LY364947 or GLP-1 [8]: slight cytotoxic effect; LogP [9]: negative logP
COc1ccc2c(c1)[nH]c1c(C)nccc12 [harmine] | about 20% |  |  | 1 to 2.5 µM |  |  | 0.01 to 10 µM | nuclear translocation of NFAT-GFP despite mCherry-DYRK1A overexpression [12]: induced nuclear translocation of NFAT-GFP; effect on the GLP-1-induced increase in insulin production level, administered simultaneously with GLP-1 ([1]; GLP-1 5 nM): attenuated; insulin level ([1]; day 1, control 10%): 37%; insulin level ([1]; day 5, control 28%): 34%; insulin level ([2]; MIN6, day 12, control 24%, harmine 1 μM): 37%; effect on the GLP-1-induced increase in insulin production level, administered simultaneously with GLP-1 ([2]; MIN6, GLP-1 5 nM): attenuated; insulin secretion by organoids (GSIS, ELISA), with LY364947 addition [3]: enhanced by LY364947 addition; insulin secretion by organoids (GSIS, ELISA) [3]: highest insulin secretion level; Ki-67-positive cells ([4]; MIN6, compound alone, control cells 32%): 50%; Ki-67-positive cells, combination with GLP-1 ([4]; control cells 32%): 55%; Ki-67-positive cells, combination with LY364947 ([4]; control cells 32%): 58%; logP at 15 min [9]: 3.24; concentrations at which mild toxicity was observed (MTT) [11]: higher than 50 μM
O=c1c(O)c(-c2ccc(O)cc2)oc2c(O)c(O)cc(O)c12 [herbacetin, 3,5,7,8-tetrahydroxy-2-(4-hydroxyphenyl)chromen-4-one] |  | decreased DYRK1A activity dose-dependently | Moderate inhibition of CyclinD1 phosphorylation | Identical results | 6.3 |  | Identical results | logP at 15 min [9]: 1.72; activation of NFAT response ([10]; 1 to 10 μM): only effective at the highest concentration tested
C[C@@H]1O[C@@H](Oc2c(-c3cc(O)c(O)c(O)c3)oc3cc(O)cc(O)c3c2=O)[C@H](O)[C@H](O)[C@H]1O [myricitrin, 5,7-dihydroxy-3-[(2S,3R,4R,5R,6S)-3,4,5-trihydroxy-6-methyloxan-2-yl]oxy-2-(3,4,5-trihydroxyphenyl)chromen-4-one] |  | no influence on DYRK1A activity |  |  |  |  |  | 
O=c1c(O)c(-c2ccc(O)c(O)c2)oc2cc(O)cc(O)c12 [quercetin, 2-(3,4-dihydroxyphenyl)-3,5,7-trihydroxychromen-4-one] |  |  | significantly reduced CyclinD1 phosphorylation | 0.25 to 5 µM |  | threefold | 0.25 to 5 µM | effect on insulin level over 12 days [1]: noticeable decrease in insulin level on day 12; effect on insulin level over 12 days [2]: noticeable decrease in insulin level on day 12; insulin secretion by organoids (GSIS, ELISA), with LY364947 addition [3]: enhanced by LY364947 addition; insulin secretion by organoids (GSIS, ELISA) [3]: significant increase in insulin secretion; Ki-67-positive cells, combination with GLP-1 ([4]; control cells 32%): modest effect; effect on residual DYRK1A activity [5]: decreased DYRK1A activity dose-dependently; IC50 [5]: 1.7 µM; LogP [9]: 1.40
C[C@@H]1O[C@@H](OC[C@H]2O[C@@H](Oc3c(-c4ccc(O)c(O)c4)oc4cc(O)cc(O)c4c3=O)[C@H](O)[C@@H](O)[C@@H]2O)[C@H](O)[C@H](O)[C@H]1O [rutin, 2-(3,4-dihydroxyphenyl)-5,7-dihydroxy-3-[(2S,3R,4S,5S,6R)-3,4,5-trihydroxy-6-[[(2R,3R,4R,5R,6S)-3,4,5-trihydroxy-6-methyloxan-2-yl]oxymethyl]oxan-2-yl]oxychromen-4-one] |  | decreased DYRK1A activity dose-dependently | significantly reduced CyclinD1 phosphorylation | did not influence cell viability | 4.5 | twofold | did not influence cell viability | cytotoxic effect, combination with LY364947 or GLP-1 [8]: slight cytotoxic effect; LogP [9]: negative logP
COc1ccc(-c2cc(=O)c3c(OC)c(OC)c(OC)cc3o2)cc1OC [sinensetin, 2-(3,4-dimethoxyphenyl)-5,6,7-trimethoxychromen-4-one] |  | no influence on DYRK1A activity |  |  |  |  |  | 
GLP-1: GLP-1R agonist | up to 5% |  |  |  |  |  |  | effect on insulin level over 12 days [1]: robust increase in insulin production level in the late stage of the experiment (day 5–12); effect on insulin level over 12 days [2]: robust increase in insulin production level in the late stage of the experiment (day 5–12)
